Results on four compounds are retold here after patent US20110124505A1, “Agricultural Compositions” (COGNIS IP MANAGEMENT GMBH, priority 2008, published 2011).

This data set can be described thus: Solubility tests of biocides in different solvents. From the text: The solubility of various herbicides, fungicides and insecticides has been tested using different solvents.
Where [1] appears, read: in 100 ml of solvent C8-C10 fatty acid dimethyl amide (1:1) (Example 11).
Where [2] appears, read: in 100 ml of solvent C8-C10 fatty acid methyl ester (Comparative Example C14).
[3] abbreviates: in 100 ml of solvent C8 fatty acid dimethylamide (Example 9).
Setting [4] is: in 100 ml of solvent C10 fatty acid dimethyl amide (Example 10).
Setting [5] is: in 100 ml of solvent C18 fatty acid dimethyl amide (Comparative Example C13).

With `Cc1c(COC(=O)[C@@H]2[C@H](/C=C(\Cl)C(F)(F)F)C2(C)C)cccc1-c1ccccc1` (racemic) [Bifenthrin], the Solubility runs as follows: under setting [1], 34 percent by weight; under setting [2], 0 percent by weight; under setting [3], 30 percent by weight; under setting [4], 31 percent by weight; under setting [5], 10 percent by weight.

Regarding `O=C(NC(=O)c1c(F)cccc1F)Nc1ccc(OC(F)(F)C(F)OC(F)(F)F)c(Cl)c1` (stereo not drawn) [Novaluron], the Solubility is, setting by setting: under setting [1], 32 percent by weight; under setting [2], 1 percent by weight; under setting [3], 28 percent by weight; under setting [4], 28 percent by weight; under setting [5], 8 percent by weight.

For the compound `CCOc1cc(Oc2ccc(C(F)(F)F)cc2Cl)ccc1[N+](=O)[O-]` [Oxyfluorfen], the Solubility by setting is: (in 100 ml of solvent C6-C12 fatty alcohol + 6PO (Comparative Example C4)) 10 percent by weight; (in 100 ml of solvent C6 fatty acid dimethyl amide (Comparative Example C1)) 12 percent by weight; (in 100 ml of solvent C8-C10 fatty acid dimethyl amide (1:1) (Example 3)) 31 percent by weight; (in 100 ml of solvent C8-C10 fatty acid methyl ester (Comparative Example C3)) 3 percent by weight; (in 100 ml of solvent C8 fatty acid dimethylamide (Example 1)) 25 percent by weight; (in 100 ml of solvent C10 fatty acid dimethyl amide (Example 2)) 28 percent by weight. Moreover, the Solubility (in 100 ml of solvent C12-C15 benzoate (Comparative Example C5)) worked out at 7 percent by weight, the Solubility (in 100 ml of solvent C12 fatty acid dimethyl amide (Example 4)) was determined as 27 percent by weight, the Solubility (in 100 ml of solvent C18 fatty acid dimethyl amide (Comparative Example C2)) was found to be 19 percent by weight and the Solubility (in 100 ml of solvent Di-C8 alkyl carbonate (Comparative Example C6)) was 4 percent by weight.

In the case of `CC(C)(C)C(O)(CCc1ccc(Cl)cc1)Cn1cncn1` (stereo not drawn) [Tebucanazole], the Solubility by setting is: (in 100 ml of solvent C6 fatty acid dimethyl amide (Comparative Example C7)) 18 percent by weight; (in 100 ml of solvent C8-C10 fatty acid dimethyl amide (1:1) (Example 7)) 39 percent by weight; (in 100 ml of solvent C8-C10 fatty acid methyl ester (Comparative Example C9)) 9 percent by weight; (in 100 ml of solvent C8 fatty acid dimethylamide (Example 5)) 30 percent by weight; (in 100 ml of solvent C10 fatty acid dimethyl amide (Example 6)) 33 percent by weight; (in 100 ml of solvent C12 fatty acid dimethyl amide (Example 8)) 35 percent by weight. The Solubility by setting is: (in 100 ml of solvent C18 fatty acid dimethyl amide (Comparative Example C8)) 22 percent by weight; (in 100 ml of solvent Di-C8 alkyl carbonate (Comparative Example C11)) 2 percent by weight; (in 100 ml of solvent Di-C8 alkyl ether (Comparative Example C12)) 2 percent by weight; (in 100 ml of solvent Triacetin (Comparative Example C10)) 6 percent by weight.
